Source: patent US12589090B2, “Compounds and methods for the treatment of degenerative disorders” (Aquilus Pharmaceuticals, Inc., priority 2019, dated 2026)
“Also recorded” adds a separate entry of the source.

Columns and labels:
[1] = test system: Caspase 3; experiment: Caspase 3 protein level in dorsal root ganglion of SNL rats via Western blotting (Examples 10, 17); type: in vivo, Sprague Dawley rats; details: Left DRG of SNL rats, 160 mg/Kg PO for 5 days, vs. Vehicle treated SNL rats, unpaired t-test
Text: Western blotting is a widely used analytical technique used to detect specific proteins in a sample of tissue homogenate or extract. Before one can perform Western blotting one must develop a technique for extracting the protein to be measured from the target tissue. Below is an example of the measurement of Caspase 3 from rat dorsal root ganglion (DRG) using Western blotting.
Protein Extraction Preparation: Frozen DRG tissue samples were homogenized in a radioimmunoprecipitation assay (RIPA) buffer (75 μl per sample) using a handheld pestle homogenizer, 30 seconds on ice. Samples were cleared by centrifugation at 14,000 rpm for 15 minutes at 4° C. Supernatants were collected and protein amount was determined using Bio-Rad DC protein kit.
Western Blotting: Protein samples were denatured in Laemmli buffer/2-mercaptoethanol for 5 minutes at 95 C. Denatured protein samples were separated by SDS-PAGE. After electrophoresis, proteins were transferred from gel to LFP-PVDF membranes by electroblotting. […]
Antibody binding was detected using the ECL Plus Western Chemifluorescence Detection Kit (Cat #32132, ThermoFisher Scientific). […] The scanned images from the Typhoon were analyzed with ImageQuantTL software version 7.0 (GE Healthcare Bioscience, Piscataway, NJ). Band intensities were determined using the Rolling Ball method. […]

[2] = In-vivo oral PK of Compound 118 in SOD-1 mice (Example 19); set-up: species or system SOD-1-G93A (SOD-1) mice; details: for AUC / Cmax: SOD-1-G93A, mouse, po, PO 200 mg/Kg for 3 days
Experimental: The present example orally doses compound 118 once per day (SID) or twice per day (BID) for three days to a series of mice that have overexpression for the protein copper-zinc superoxide dismutase 1. Compound 118 was orally dosed in SOD-1-G93A (SOD-1) mice in a PK study. In summary, SOD-1 mice (At P100±4 days of age) received twice daily (BID) or once daily (SID) oral administration of 200 mg/Kg Compound 118 (as an aqueous suspension in 0.5% methylcellulose) for 3 days (Table 6). Plasma was collected from the tail vein at baseline (pre-dose), 15 min, 30 min, 1 h, 2 h, 4 h post-last PO dose on the third day. One animal from each group was euthanized 2 hrs. post dose on the third day of dosing where plasma, spinal cord, and brain tissue was collected post-mortem. The remaining 3 animals per group was euthanized six hours after the final dose on the third day, plasma, spinal cord, and brain tissue was then collected post-mortem. […] There was a significant difference in clearance of Compound 118 within plasma between male and female SOD-1 mice. […] Given the sex difference in clearance, it will be necessary to increase the amount that male SOD-1 mice are dosed compared to females SOD-1 mice in order maintain parity in exposure between the sexes.

[3] = test system: TDP-43 overexpression in Drosophila motor neurons; experiment: TDP-43 Drosophila model of ALS, larval turning read-out (Example 23); type: in vivo; details: 1 microMolar, TDP-43 (wild-type and G298S) overexpression, vs. DMSO vehicle
Experimental: Procedure: UAS TDP-43 male Drosophila flies were crossed with D42-Gal4 female virgins on fly food containing either DMSO or 1% Compound 118 in dimethyl sulfoxide (DMSO). For DMSO controls, the same volume of DMSO as the corresponding Compound 118 concentration was added. Bromophenol blue was added to a final concentration of around 0.02% to ensure homogeneity. Crosses were made on drug food with three female virgins and two males in each vial and were maintained at 25° C. unless noted. The parents were discarded after 5-7 days and then the vials were screened for adult progeny with straight wings from Day 14 to Day 25. All adults were screened for TDP-43 expression by visualizing the YFP tag. Total number of pupae was counted on Day 25. Percent survival was calculated using the formula (total number of straight-winged adults/total number of pupae)×100. All experiments were performed in triplicate. Read-outs include larval turning assay and pupil lethality screen.
TDP^WT=Wild-type TDP-43, TDP^G298S=Diseases associated G298S mutant expressed in motor neurons. […], ***p<0.001 as compared to DMSO as vehicle.

[4] = Solubility testing (Example 27); type: physicochemical
[5] = female, plasma, 200 mg/kg, Female SOD-1 mice, BID
[6] = female, plasma, 200 mg/kg, Female SOD-1 mice, SID
[7] = male, plasma, 200 mg/kg, Male SOD-1 mice, BID
[8] = male, plasma, 200 mg/kg, Male SOD-1 mice, SID

[2H]C([2H])([2H])c1ccc(C#Cc2ccc(S(=O)(=O)N[C@H](Cc3c[nH]c4ccccc34)C(=O)O)s2)cc1 [Compound 118, (R)-3-(1H-Indol-3-yl)-2-[5-(4-trideuteromethyl-phenylethynyl)-thiophene-2-sulfonylamino]-propionic acid-(D3, 98%)]
caspase 3 protein level in dorsal root ganglion (Western blotting) [1]: significant decrease of caspase 3 protein; also recorded: decrease in the caspase-3 protein levels | AUC in Female SOD-1 mice relative to male SOD-1 mice ([2]; 200 mg/Kg PO, plasma): 3-4 times | concentration in the spinal cord ([2]; SOD-1 mice, 200 mg/Kg PO, T=2 hour from last dose on third day): 200-400 ng of AQU-118/gram spinal tissue | oral bioavailability in plasma ([2]; SOD-1 mice, 200 mg/Kg PO, 200 mg/kg): good oral bioavailability | oral bioavailability in plasma ([2]; SOD-1 mice, 200 mg/Kg PO, listed as AQU-118, 200 mg/kg): good bioavailability in plasma | AUC [2, 5]: 394 µg·h/mL | Cmax [2, 5]: 111 µg/mL | AUC [2, 6]: 342 µg·h/mL | Cmax [2, 6]: 96 µg/mL | AUC [2, 7]: 115 µg·h/mL | Cmax [2, 7]: 39.1 µg/mL | AUC [2, 8]: 121 µg·h/mL | Cmax [2, 8]: 44.5 µg/mL | locomotive defects via larval turning times [3]: able to mitigate locomotive defects | solubility in DMSO, acetone and methanol [4]: soluble | solubility in water ([4]; as the free acid): poorly soluble
